From ChEMBL document CHEMBL1201862, “PubChem BioAssay data set” (2004)
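All cell lines were grown in 96-well plates and treated with compound for 48 hours. GI50: concentration for 50% inhibition of growth.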 The source made the active and inactive calls. No stated cut-off is given here; in the data, active = GI50 up to about 1.1 µM and inactive = higher.

Columns and labels:
Test in all cases: NCI anticancer screen, dose series, 48 h
HOP-62 = test system: HOP-62
SF-295 = test system: SF-295
OVCAR-3 = test system: OVCAR-3
HL-60 = test system: HL-60
NCI/ADR-RES = test system: NCI/ADR-RES
UACC-62 = test system: UACC-62
A549 = test system: A549
SK-MEL-2 = test system: SK-MEL-2
NCI-H23 = test system: NCI-H23
SF-539 = test system: SF-539
U-251 = test system: U-251
NCI-H226 = test system: NCI-H226
SK-MEL-28 = test system: SK-MEL-28
HT-29 = test system: HT-29
MCF7 = test system: MCF7
T47D = test system: T47D
HCT-15 = test system: HCT-15
Hs-578T = test system: Hs-578T
SNB-75 = test system: SNB-75
IGROV-1 = test system: IGROV-1

SMILES | GI50 (HOP-62) | GI50 (SF-295) | GI50 (OVCAR-3) | GI50 (HL-60) | GI50 (NCI/ADR-RES) | GI50 (UACC-62) | GI50 (A549) | GI50 (SK-MEL-2) | GI50 (NCI-H23) | GI50 (SF-539) | GI50 (U-251) | GI50 (NCI-H226) | GI50 (SK-MEL-28) | GI50 (HT-29) | GI50 (MCF7) | GI50 (T47D) | GI50 (HCT-15) [µM] | GI50 (Hs-578T) | GI50 (SNB-75) | GI50 (IGROV-1)
c1ccc(CCCNc2nnnc3ccccc23)cc1 | > 100 µM (inactive) | 44.2 µM (inactive) | > 100 µM (inactive) | > 100 µM (inactive) | 39.4 µM (inactive) | 36 µM (inactive) | 63 µM (inactive) | > 100 µM (inactive) | 70.3 µM (inactive) | 57 µM (inactive) | > 100 µM (inactive) | > 100 µM (inactive) | > 100 µM (inactive) | > 100 µM (inactive) | 46 µM (inactive) | 23.2 µM (inactive) | > 100 | 34.8 µM (inactive) | > 100 µM (inactive) | > 100 µM (inactive)
COc1ccc(C(=O)NCCN(C)C)c2nc3ccccc3cc12 | 0.353 µM (active) | 0.653 µM (active) | 2 µM (inactive) | 0.11 µM (active) | 1.67 µM (inactive) | 0.729 µM (active) | 0.0962 µM (active) | 3.01 µM (inactive) | 0.366 µM (active) | 1.31 µM (inactive) | 0.64 µM (active) | 0.785 µM (active) | 2 µM (inactive) | 0.596 µM (active) | 0.401 µM (active) | 2.22 µM (inactive) | 1.35 | 1.4 µM (inactive) | 4.68 µM (inactive) | 1.32 µM (inactive)
COC(=O)C1=C(OC(=O)/C(=C/c2ccc(Cl)cc2)c2ccc(Cl)cc2)C(C(=O)OC)[C@@]2(O)[C@@H](C(=O)OC)[C@H](C)C[C@@H]1[C@@H]2C(=O)OC (stereo not given in full) | > 100 µM (inactive) | 3.22 µM (inactive) | > 45.8 µM (inactive) | > 100 µM (inactive) | 17.2 µM (inactive) | > 100 µM (inactive) | 11.5 µM (inactive) | > 92.7 µM (inactive) | 25.2 µM (inactive) | > 100 µM (inactive) | 17.8 µM (inactive) | > 100 µM (inactive) | > 100 µM (inactive) | > 61 µM (inactive) | 58.6 µM (inactive) | > 74 µM (inactive) | > 81.3 | 39.4 µM (inactive) | > 56 µM (inactive) | 27.6 µM (inactive)
C/C(=N\N)C(CN1CCCCC1)C(c1ccccc1)c1c(O)c2ccccc2oc1=O (stereo not given) | > 100 µM (inactive) | > 100 µM (inactive) | > 100 µM (inactive) | > 71 µM (inactive) | > 100 µM (inactive) | > 100 µM (inactive) | > 100 µM (inactive) | > 100 µM (inactive) | > 100 µM (inactive) | > 100 µM (inactive) | > 100 µM (inactive) | > 100 µM (inactive) | > 100 µM (inactive) | > 100 µM (inactive) | > 100 µM (inactive) | > 100 µM (inactive) | > 100 | > 100 µM (inactive) | 32.7 µM (inactive) | > 100 µM (inactive)
O=C(CC(=O)Nc1ccccc1)NNC(c1cc(/N=N/c2ccc(Br)cc2)ccc1O)P(O)O (stereo not given) | 6.79 µM (inactive) | 3.64 µM (inactive) | 0.333 µM (active) | 0.291 µM (active) | 1.06 µM (active) | 1.34 µM (inactive) | 6.41 µM (inactive) | > 10 µM (inactive) | 3.28 µM (inactive) | 2.12 µM (inactive) | 3.51 µM (inactive) | 1.57 µM (inactive) | 4.45 µM (inactive) | > 10 µM (inactive) | 1.03 µM (active) | 3.31 µM (inactive) | 0.425 | > 10 µM (inactive) | 2.32 µM (inactive) | 9.62 µM (inactive)
O=c1c(F)cn(Cc2c(Cl)cccc2Cl)c(=O)n1Cc1c(Cl)cccc1Cl | > 31.6 µM (inactive) | > 31.6 µM (inactive) | > 31.6 µM (inactive) | 20 µM (inactive) | > 31.6 µM (inactive) | 26 µM (inactive) | > 31.6 µM (inactive) | > 31.6 µM (inactive) | 27.7 µM (inactive) | > 31.6 µM (inactive) | > 31.6 µM (inactive) | > 71.6 µM (inactive) | > 31.6 µM (inactive) | 18.3 µM (inactive) | 24.5 µM (inactive) | 20.7 µM (inactive) | > 31.6 | > 31.6 µM (inactive) | 16.5 µM (inactive) | > 31.6 µM (inactive)
C1CSC2=C(S1)SC1=C(S2)SC(=C2SC3=C(SC4=C(SCCS4)S3)S2)S1 | > 100 µM (inactive) | > 100 µM (inactive) | > 100 µM (inactive) | 23.9 µM (inactive) | > 100 µM (inactive) | > 100 µM (inactive) | > 100 µM (inactive) | 74.1 µM (inactive) | > 100 µM (inactive) | > 100 µM (inactive) | > 100 µM (inactive) | > 100 µM (inactive) | > 100 µM (inactive) | > 100 µM (inactive) | > 100 µM (inactive) | > 100 µM (inactive) | > 100 | > 100 µM (inactive) | 37.7 µM (inactive) | > 100 µM (inactive)
Clc1ccc(OCC2NC3C=CC32)cn1 (stereo not given) | > 100 µM (inactive) | > 100 µM (inactive) | > 100 µM (inactive) | > 100 µM (inactive) | > 100 µM (inactive) | > 100 µM (inactive) | > 100 µM (inactive) | > 100 µM (inactive) | > 100 µM (inactive) | > 100 µM (inactive) | > 100 µM (inactive) | > 100 µM (inactive) | > 100 µM (inactive) | 50.1 µM (inactive) | 55 µM (inactive) | > 100 µM (inactive) | > 100 | > 100 µM (inactive) | > 100 µM (inactive) | > 100 µM (inactive)
Cc1cc(N(CCC#N)CCC#N)ccc1/C=C(\NC(=O)/C=C/c1ccccc1)C(=O)NN | 37.1 µM (inactive) | 40 µM (inactive) | > 100 µM (inactive) | > 100 µM (inactive) | > 100 µM (inactive) | > 91 µM (inactive) | > 100 µM (inactive) | > 61.7 µM (inactive) | > 65.8 µM (inactive) | 39.1 µM (inactive) | 26 µM (inactive) | > 55.6 µM (inactive) | > 100 µM (inactive) | > 100 µM (inactive) | 95.1 µM (inactive) | 55 µM (inactive) | > 100 | 31.3 µM (inactive) | 24.7 µM (inactive) | > 75.3 µM (inactive)
Cc1nc(C(N)=S)sc1C(=O)CC(=O)C(=O)Nc1nc2ccccc2[nH]1 | > 100 µM (inactive) | > 100 µM (inactive) | > 100 µM (inactive) | 46.8 µM (inactive) | > 100 µM (inactive) | > 100 µM (inactive) | > 100 µM (inactive) | > 100 µM (inactive) | > 100 µM (inactive) | > 100 µM (inactive) | > 100 µM (inactive) | 11.5 µM (inactive) | > 100 µM (inactive) | > 100 µM (inactive) | > 100 µM (inactive) | > 100 µM (inactive) | > 100 | > 100 µM (inactive) | > 100 µM (inactive) | > 100 µM (inactive)
O=C(Oc1ccccn1)c1cc2cc(CCl)ccc2oc1=O | 23.7 µM (inactive) | 68.1 µM (inactive) | 19.4 µM (inactive) | 41.8 µM (inactive) | 27 µM (inactive) | 27.2 µM (inactive) | > 100 µM (inactive) | 25.9 µM (inactive) | 21.6 µM (inactive) | 50.5 µM (inactive) | 18.5 µM (inactive) | 71.1 µM (inactive) | 49 µM (inactive) | 76.7 µM (inactive) | 38.5 µM (inactive) | 32.7 µM (inactive) | 39.4 | 21.7 µM (inactive) | 24.8 µM (inactive) | > 100 µM (inactive)
CC(=O)O[C@H]1C[C@H](O[C@H]2[C@@H](O)C[C@H](O[C@H]3[C@@H](O)C[C@H](O[C@H]4CC[C@@]5(C)[C@H](CC[C@@H]6[C@@H]5CC[C@]5(O)[C@@H](C7=CC(=O)OC7)CC[C@]65O)C4)O[C@@H]3C)O[C@@H]2C)O[C@H](C)[C@H]1O[C@@H]1O[C@H](CO)[C@@H](O)[C@H](O)[C@H]1O | 0.0664 µM (active) | 0.344 µM (active) | 0.349 µM (active) | 0.223 µM (active) | 0.237 µM (active) | 0.769 µM (active) | 0.0581 µM (active) | 0.498 µM (active) | 0.137 µM (active) | 0.185 µM (active) | 0.427 µM (active) | 1.29 µM (inactive) | 1.5 µM (inactive) | 0.286 µM (active) | 0.52 µM (active) | 0.553 µM (active) | 0.293 | 0.348 µM (active) | 0.908 µM (active) | 0.356 µM (active)
O=C1C=CC(=O)N1c1ccc(I)cc1 | 15.7 µM (inactive) | 20.5 µM (inactive) | 20.8 µM (inactive) | 2.84 µM (inactive) | 29.9 µM (inactive) | 17.5 µM (inactive) | 22.9 µM (inactive) | 20.4 µM (inactive) | 23.8 µM (inactive) | 22.5 µM (inactive) | 23.6 µM (inactive) | 22.9 µM (inactive) | 18.5 µM (inactive) | 18.9 µM (inactive) | 17.4 µM (inactive) | 25.6 µM (inactive) | 11.5 | 23.4 µM (inactive) | 21.8 µM (inactive) | 24.9 µM (inactive)
